The values that follow come from patent US20250084095A1, “Aminopyrimidine Derivatives as Cyclin-Dependent Kinase Inhibitors” (Accutar Biotechnology Inc., priority 2023, published 2025).

One may read the IC50 as the concentration at which inhibition is half-maximal. The GI50 is the concentration that inhibits growth by half.

SMILES strings stand for the structures. Where two headings read alike, the source gives them in different places.

Format in all cases: cell-based
Experiment [1] relates to Phospho-Rb (Ser807/811) in SW1573-CDK6 KO cells. Description: Phospho-Rb expression inhibition in SW1573-CDK6 KO cells quantified by in cell Western. As to conditions: Homo sapiens, 24 hours, read-out: SW1573 CDK6 KO pRb IC50. Here is the method: (§1) Parental SW1573 cells were obtained from the American Type Culture Collection (ATCC). CDK4 or CDK6 gene in […] cells was knocked out using the CRISPR-Cas9 technology. First, gRNA complex of CDK4 or CDK6 was prepared with Alt-R CRISPR-Cas9 tracrRNA and crRNA CDK4 (5′-[…]-3′ (SEQ ID NO: 4)) or CDK6 (5′-[…]-3′ (SEQ ID NO. 5)) (IDT-Integrated DNA Technologies), and then ribonucleoprotein (RNP) complex of CDK4 or CDK6 was prepared with respective gRNA complex and Alt-R S.p. Cas9 Nuclease V3 (IDT-Integrated DNA Technologies). Next, 5×10^4/10 μL SWJ1573 cells were electroporated with the CDK4 or CDK6 RNP complex and Alt-R Cas9 Electroporation Enhancer using Neon Transfection System (Thermo Fisher). Cells were then plated in a 96-well plate to select single clones for validation of CDK4 or CDK6 knockout by western blot analysis.
(§2) MCF7 cells were obtained from American Type Culture Collection (ATCC, HTB-22). SW1573-CDK6 KO and SW1573-CDK4 KO cells were generated by the CRISPR-Cas9 technology. All cells were plated in 96-well plates (VWR #10062-900, or Corning #3904) in 90 uL culture medium at a density of 20,000 cells/well in the respective growth medium containing 10% FBS and 1% Penicillin Streptomycin, and then incubated at 37° C. overnight. The following day, the test compound was administered to the cells by using 1000× compound stock solution prepared in DMSO at various concentrations. 1000× compound stock solution was first diluted in culturing medium to 10×, then 10 uL compound medium was added to each well in the cell plates. After administration of the compound, the cells were then incubated at 37° C. for 24 hours. Upon completion, the cells were washed with PBS briefly. 150 uL/well of 4% formaldehyde was added and the plates were incubated at room temperature for 20 mins. The cells were washed with PBS briefly, and permeabilized with 150 uL/well of ice cold 100% methanol for 10 mins. The cells were washed with PBS briefly and blocked with 100 uL/well LI-COR blocking buffer for 1 hr at room temperature with gentle shaking. The cells were incubated overnight at 4° C. with 50 uL primary antibody rabbit anti-Phospho-Rb (Ser807/811) (1: 500, Cell Signaling, #8516) and anti-Rb (1:200, Santa Cruz, sc-73598) diluted in Intercept Blocking Buffer (LI-COR, #927-60001) containing 0.1% Tween 20. The next day, the cells were washed with 200 uL PBS containing 0.1% Tween 20, 5×5 mins at room temperature with gentle shaking, and incubated with 50 uL secondary antibody, IRDye® 800CW Goat anti-Rabbit IgG (1:1000, LI-COR, #926-32211) and IRDye®680RD Goat anti-Mouse IgG (1:1000, LI-COR, #926-68070), in LI-COR blocking buffer with 0.2% Tween 20 for 1 hr at room temperature with gentle shaking. The cells were washed with 200 uL PBS containing 0.1% Tween 20, 5×5 mins at room temperature with gentle shaking. The cells were washed with PBS for 5 mins. 100 uL fresh PBS was added to each well and the plates were imaged on a LI-COR Odyssey CLX plate reader.

The subject of experiment [2] is Phospho-Rb (Ser807/811) in SW1573-CDK4 KO cells. Description: Phospho-Rb expression inhibition in SW1573-CDK4 KO cells quantified by in cell Western. As to conditions: Homo sapiens, 24 hours, read-out: SW1573 CDK4 KO pRb IC50. Here is the method: as §1, §2
Experiment [3] concerns 22RV1 cells. Description: Cell growth inhibition of 22RV1 cells (CellTiter-Glo). Particulars: for GI50: 5 days, CellTiter-Glo. The procedure, abridged:
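22RV1 cells were plated in RPMI1640 with FBS (20% in one version, 10% in the other) and dosed next day at various concentrations from DMSO stocks. After 5 days at 37 °C, viability was measured by CellTiter-Glo luminescence.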
On the technique in general: ATP-based viability assays read luminescence as a measure of living cells.

[4] abbreviates: Homo sapiens, 22Rv1, 120 h, read-out: 22RV1 Cell Growh GI50.

Turning to `CC(C)n1c(C(C)(C)O)nc2c(F)cc(-c3nc(N[C@@H]4C[C@H]5CO[C@H](O5)[C@H]4O)ncc3Cl)cc21` [Compound 1, (1S,3R,4S,5R)-3-((5-chloro-4-(4-fluoro-2-(2-hydroxypropan-2-yl)-1-isopropyl-1H-benzo[d]imidazol-6-yl)pyrimidin-2-yl)amino)-6,8-dioxabicyclo[3.2.1]octan-4-ol], the IC50 in experiment [1] was not above 40 nM; in experiment [2] it was more than 1000 nM. In addition, the GI50 in experiment [3] (setting [4]) is not above 120 nM; in experiment [3] (Homo sapiens, 22Rv1, 120 h, read-out: 22RVI, GI50), 144 nM. For the same compound, the “Potency in 22RV1 cell growth inhibition compared with the reference compound” value in experiment [3] (versus PF-07220060) is given as “slightly higher potency”.
Turning to `Cc1nc2c(F)cc(-c3nc(N[C@@H]4C[C@H]5CO[C@H](O5)[C@H]4O)ncc3Cl)cc2n1C(C)C` [Compound 25, (1S,3R,4S,5R)-3-((5-chloro-4-(4-fluoro-1-isopropyl-2-methyl-1H-benzo[d]imidazol-6-yl)pyrimidin-2-yl)amino)-6,8-dioxabicyclo[3.2.1]octan-4-ol], the IC50 in experiment [1] was not above 40 nM; in experiment [2], more than 1000 nM. For the same compound, the GI50 in experiment [3] (setting [4]) was 120 to 450 nM.
Consider `Cc1c(C)n(C(C)C)c2cc(-c3nc(N[C@@H]4C[C@H]5CO[C@H](O5)[C@H]4O)ncc3Cl)ccc2c1=O` [Compound 191, 7-(5-chloro-2-(((1S,3R,4S,5R)-4-hydroxy-6,8-dioxabicyclo[3.2.1]octan-3-yl)amino)pyrimidin-4-yl)-1-isopropyl-2,3-dimethylquinolin-4(1H)-one], for which the 50% inhibitory concentration (IC50) in experiment [1] was 150 to 1000 nM; in experiment [2], more than 1000 nM. Further, the 50% growth inhibitory concentration (GI50) in experiment [3] (setting [4]) fell in the range of 450 to 3000 nM.
As to `CNCc1c(C)c(=O)c2ccc(-c3nc(N[C@@H]4C[C@H]5CO[C@H](O5)[C@H]4O)ncc3F)cc2n1C(C)C` [Compound 194, 7-(5-fluoro-2-(((1S,3R,4S,5R)-4-hydroxy-6,8-dioxabicyclo[3.2.1]octan-3-yl)amino)pyrimidin-4-yl)-1-isopropyl-3-methyl-2-((methylamino)methyl)quinolin-4(1H)-one], the IC50 is 40 to 150 nM in experiment [1] and more than 1000 nM in experiment [2]. The concentration for 50% growth inhibition (GI50) in experiment [3] (setting [4]) lay within 120 to 450 nM.
The corresponding values for `Cc1c(CN(C)C)n(C(C)C)c2cc(-c3nc(N[C@@H]4C[C@H]5CO[C@H](O5)[C@H]4O)ncc3F)ccc2c1=O` [Compound 195, 2-((dimethylamino)methyl)-7-(5-fluoro-2-(((1S,3R,4S,5R)-4-hydroxy-6,8-dioxabicyclo [3.2.1]octan-3-yl)amino)pyrimidin-4-yl)-1-isopropyl-3-methylquinolin-4(1H)-one] are not above 40 nM, more than 1000 nM and 120 to 450 nM.
The matching figures for `Cc1c(CN2CCC2)n(C(C)C)c2cc(-c3nc(N[C@@H]4C[C@H]5CO[C@H](O5)[C@H]4O)ncc3F)ccc2c1=O` [Compound 196, 2-(azetidin-1-ylmethyl)-7-(5-fluoro-2-(((1S,3R,4S,5R)-4-hydroxy-6,8-dioxabicyclo[3.2.1]octan-3-yl)amino)pyrimidin-4-yl)-1-isopropyl-3-methylquinolin-4(1H)-one]: 40 to 150 nM, more than 1000 nM and 120 to 450 nM.
`Cc1c(CN2CC(F)C2)n(C(C)C)c2cc(-c3nc(N[C@@H]4C[C@H]5CO[C@H](O5)[C@H]4O)ncc3F)ccc2c1=O` [Compound 197, 7-(5-fluoro-2-(((1S,3R,4S,5R)-4-hydroxy-6,8-dioxabicyclo[3.2.1]octan-3-yl)amino)pyrimidin-4-yl)-2-((3-fluoroazetidin-1-yl)methyl)-1-isopropyl-3-methylquinolin-4(1H)-one]: the figures for the IC50 in experiment [1] and in experiment [2] were 40 to 150 nM and more than 1000 nM, respectively. Also, the GI50 in experiment [3] (setting [4]) lay within 120 to 450 nM.
With `Cc1c(CN2[C@@H](C)COC[C@@H]2C)n(C(C)C)c2cc(-c3nc(N[C@@H]4C[C@H]5CO[C@H](O5)[C@H]4O)ncc3F)ccc2c1=O` [Compound 199, 2-(((3S,5S)-3,5-dimethylmorpholino)methyl)-7-(5-fluoro-2-(((1S,3R,4S,5R)-4-hydroxy-6,8-dioxabicyclo[3.2.1]octan-3-yl)amino)pyrimidin-4-yl)-1-isopropyl-3-methylquinolin-4(1H)-one], the IC50 is not above 40 nM in experiment [1] and 150 to 1000 nM in experiment [2]. In addition, in experiment [3] (setting [4]), the GI50 was not above 120 nM.
Regarding `CC(C)n1c(CN2[C@@H](C)COC[C@@H]2C)c(F)c(=O)c2ccc(-c3nc(N[C@@H]4C[C@H]5CO[C@H](O5)[C@H]4O)ncc3Cl)cc21` [Compound 201, 7-(5-chloro-2-(((1S,3R,4S,5R)-4-hydroxy-6,8-dioxabicyclo[3.2.1]octan-3-yl)amino)pyrimidin-4-yl)-2-(((3S,5S)-3,5-dimethylmorpholino)methyl)-3-fluoro-1-isopropylquinolin-4(1H)-one], the figures for the IC50 in experiment [1] and in experiment [2] were 40 to 150 nM and more than 1000 nM, respectively. The 50% growth inhibitory concentration (GI50) in experiment [3] (setting [4]) is 120 to 450 nM.
On to `CC(C)n1c(CN2CC[C@@H](F)C2)c(F)c(=O)c2ccc(-c3nc(N[C@@H]4C[C@H]5CO[C@H](O5)[C@H]4O)ncc3F)cc21` [Compound 202, 3-fluoro-7-(5-fluoro-2-(((1S,3R,4S,5R)-4-hydroxy-6,8-dioxabicyclo[3.2.1]octan-3-yl)amino)pyrimidin-4-yl)-2-(((R)-3-fluoropyrrolidin-1-yl)methyl)-1-isopropylquinolin-4(1H)-one], for which the IC50 in experiment [1] is 40 to 150 nM; in experiment [2] it was more than 1000 nM. Also, in experiment [3] (setting [4]), the concentration for 50% growth inhibition (GI50) lay in the range of 450 to 3000 nM.
Consider `CC(C)n1c(CN2[C@@H](C)COC[C@@H]2C)c(C(F)F)c(=O)c2ccc(-c3nc(N[C@@H]4C[C@H]5CO[C@H](O5)[C@H]4O)ncc3Cl)cc21` [Compound 204, 7-(5-chloro-2-(((1S,3R,4S,5R)-4-hydroxy-6,8-dioxabicyclo[3.2.1]octan-3-yl)amino)pyrimidin-4-yl)-3-(difluoromethyl)-2-(((3S,5S)-3,5-dimethylmorpholino)methyl)-1-isopropylquinolin-4(1H)-one], for which the IC50 is 40 to 150 nM in experiment [1] and more than 1000 nM in experiment [2]. The 50% growth inhibitory concentration (GI50) in experiment [3] (setting [4]) fell in the range of 120 to 450 nM.
For `CC(C)n1c(CN2[C@@H](C)COC[C@@H]2C)cc(=O)c2ccc(-c3nc(N[C@@H]4C[C@H]5CO[C@H](O5)[C@H]4O)ncc3Cl)cc21` [Compound 205, 7-(5-chloro-2-(((1S,3R,4S,5R)-4-hydroxy-6,8-dioxabicyclo[3.2.1]octan-3-yl)amino)pyrimidin-4-yl)-2-(((3S,5S)-3,5-dimethylmorpholino)methyl)-1-isopropylquinolin-4(1H)-one], the IC50 is 40 to 150 nM in experiment [1] and more than 1000 nM in experiment [2]. The GI50 in experiment [3] (setting [4]) was 120 to 450 nM.
The corresponding values for `Cc1c(CN2[C@@H](C)COC[C@@H]2C)n(C(C)C)c2cc(-c3nc(N[C@@H]4C[C@H]5CO[C@H](O5)[C@H]4O)ncc3Cl)ccc2c1=O` [Compound 206, 7-(5-chloro-2-(((1S,3R,4S,5R)-4-hydroxy-6,8-dioxabicyclo[3.2.1]octan-3-yl)amino)pyrimidin-4-yl)-2-(((3S,5S)-3,5-dimethylmorpholino)methyl)-1-isopropyl-3-methylquinolin-4(1H)-one] are not above 40 nM, 150 to 1000 nM and not above 120 nM.
Take `CC(C)n1c(C(C)(C)O)nc2c(F)cc(-c3nc(N[C@@H]4CCOC[C@H]4O)ncc3Cl)cc21` [Reference Compound, PF-07220060, reference compound]: the GI50 in experiment [3] (read-out: 22RVI, GI50) came out at 153 nM.
